Results on 22 compounds are retold here after patent US4711898A, “4-quinolone derivatives having anti-inflammatory, anti-allergic, antitussive, expectorant and antithrombotic activity” (Nippon Shinyaku Co., Ltd., priority 1982, dated 1987).

Counter-ions that a name gives are not always drawn. Like-named read-outs stand apart in the source and are kept apart here.

Data set [1] relates to SRS-A (slow reacting substance of anaphylaxis) contraction of ileum. The data set is described as follows: Anti-SRS-A action using ileus of guinea pigs. The conditions noted are these: 5 min, guinea pig ileum, SRS-A 20 units, compound five minutes before; for inhibition at 1 µM: Cavia porcellus, 1/1000 mM, read-out: 1/1000 mM SRS-A Inhibition Ratio %. The data set is classed as cell-based, Hartley strain male guinea pigs. The gist of the method: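 Ileum from male Hartley guinea pigs (300 to 350 g) in oxygenated Tyrode with 10^-7 g/ml atropine and 10^-6 g/ml pyrilamine, contracted by 20 units SRS-A. Compound added five minutes before; isotonic contraction height compared with SRS-A alone.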

In a further data set the test system is carrageenin edema. The data set is described as follows: Carrageenin edema at the hind foot of rats. The format is in vivo, SD-strain rats. The conditions noted are these: 200 mg/kg per os, one hour before carrageenin, foot volume three hours after; for inhibition in vivo at 200 mg/kg: Rattus norvegicus, po, 3 h, read-out: % Inhibition (carrageenin edema). As for the experimental part:
The anti-inflammatory action of the compounds of the present invention were evaluated by measuring the inhibition against carrageenin edema as set forth below. Carrageenin edema at the hind foot of rats: Experimental method. SD-strain rats of body weights of around 150 grams were used, each group consisting of five rats. A solution (0.1 ml) of 0.5% carrageenin dissolved in physiological saline water was subcutaneously injected into the right hind foot pat of the rats and, one hour prior to the injection of carrageenin, 200 mg/kg of test compound was given per os. Foot volumes of the rats before the carrageenin treatment and those of three hours after the treatment were measured and the differences were compared with those of the control group to adopt as a target of the effect of the compounds.

The subject of another data set is male mice. The data set is described as follows: Acute toxicity after oral administration. The format is in vivo. As for the experimental part: Acute toxicity was determined two weeks after oral administration of 4000 mg/kg to male mice. Four mice (denominator) are used in each group and the dead numbers are given as the numerator. The compounds of the present invention show little, if any, toxicity.

Data set [2] relates to passive cutaneous anaphylaxis (DNP-As homocytotropic antiserum). The data set is described as follows: passive cutaneous anaphylatic assay (PCA) in rats. As to conditions: 10 mg/kg orally, one hour before antigen; for inhibition in vivo at 10 mg/kg: Rattus norvegicus, po, 1 h, read-out: PCA Inhibition Ratio %. The data set is classed as in vivo, Wistar strain rats. The method, boiled down:
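Wistar rats were sensitised intradermally with diluted DNP-As homocytotropic antiserum and challenged 72 h later with i.v. DNP-As plus Evans Blue. Compounds were given orally at 10 mg/kg 1 h before antigen. Dye extracted from skin sites 30 min post-challenge gave inhibition relative to controls.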

Data set [3] relates to platelet aggregation induced by ADP, collagen and AA. The data set is described as follows: Action against Platelet Coagulation (aggregation in platelet rich plasma of rabbits). The data set is classed as cell-based, Male rabbits. As to conditions: Oryctolagus cuniculus; for inhibition at 100 µM: final concentration 10^-4 M; for inhibition at 10 µM: final concentration 10^-5 M; for inhibition at 1 µM: final concentration 10^-6 M. On the procedure:
Action against Platelet Coagulation was determined as follows: Male rabbits with body weights of 3 kg or around were used. Blood was taken from their carotid artery and, immediately thereafter, 1/10 volume (to the blood) of 3.8% aqueous solution of sodium citrate was added thereto. The mixture was centrifuged at room temperature (400 g; 10 minutes) to give platelet rich plasma (abbreviated as PRP: containing 5×10^5 platelets per mm^3). The PRP was then placed into a cell for platelet coagulation meter (Niko Bioscience), stirred, 5 microliters of test compound solution in dimethyl sulfoxide was added and, one minute thereafter, 5 micromolar of ADP, 10 micrograms/ml of collagen or 25 microliters of arachidoic acid (AA) was added thereto to observe changes of extinctions. From the maximum coagulation value at the time of administration the of test compound against that at the time of the solvent addition, inhibition was calculated and the effect of the compounds against the platelet coagulation was determined.

For data set [4] the following is noted: cited from earlier work.
Setting [5] is: AA 150 μM, read-out: Inhibition (%) of platelet aggregation, AA (150 μM).
Where [6] appears, read: ADP 5 μM, read-out: Inhibition (%) of platelet aggregation, ADP (5 μM).
Where [7] appears, read: collagen 10 μg/ml, read-out: Inhibition (%) of platelet aggregation, Collagen (10 μg/ml).
Where [8] appears, read: 4000 mg/kg oral, male mice, two weeks, dead/group of four.

Consider `CCCCCCn1c(-c2ccccc2)cc(=O)c2cc(C(=O)O)ccc21` [Example 20], for which the inhibition at 1 µM in data set [1] is 83.9%. The inhibition in vivo at 200 mg/kg in the data set on carrageenin edema was found to be 10.6%. Besides, the “Lethal Ratio” value in the data set on male mice (mouse, in vivo) was 1/4. Further, the inhibition in vivo at 10 mg/kg in data set [2] was 26.4%.

As for `COC(=O)c1ccc2[nH]c(-c3ccccc3I)cc(=O)c2c1` [Example 28], in data set [1], the inhibition at 1 µM is 55.6%. In the data set on carrageenin edema, the inhibition in vivo at 200 mg/kg is 15.9%. Besides, the “Lethal Ratio” value in the data set on male mice (mouse, in vivo) is given as 0/4. Also, in data set [2], the inhibition in vivo at 10 mg/kg is 19.6%.

For `Cc1ccccc1-c1cc(=O)c2cc(C(=O)O)ccc2[nH]1` [Example 42], the inhibition at 1 µM in data set [1] is 17.4%. Also, in the data set with carrageenin edema, the inhibition in vivo at 200 mg/kg turned out to be 11.8%. For the same compound, in the data set on male mice (mouse, in vivo), the “Lethal Ratio” value is 0/4. For the same compound, the inhibition in vivo at 10 mg/kg in data set [2] is 43.2%.

`COC(=O)c1ccc2[nH]c(-c3ccccc3OC)cc(=O)c2c1` [Example 56]: the inhibition at 1 µM in data set [1] stood at 25.2%. The “Lethal Ratio” value in the data set on male mice (mouse, in vivo) is listed as 1/4. Also, the inhibition in vivo at 10 mg/kg in data set [2] was found to be 22.3%.

As to `CCOC(=O)c1cccc2c1N=C(c1ccccc1Cl)CC2=O` [Example 83, ethyl 2-(2-chlorophenyl)-4-quinolone-8-carboxylate], the inhibition at 100 µM in data set [3] (setting [5]) was 100%; in data set [3] (setting [6]), 18.5%; in data set [3] (setting [7]), 100%. Also, the inhibition at 10 µM came to 3.3% in data set [3] (setting [5]) and 14% in data set [3] (setting [7]). The inhibition at 1 µM in data set [1] worked out at 75.9%. The inhibition in vivo at 200 mg/kg in the data set with carrageenin edema came to 22.5%. Further, the “Lethal Ratio” value with male mice (setting [8]) is recorded as 0/4. The inhibition in vivo at 10 mg/kg in data set [2] is 28.5%.

Turning to `O=C(O)c1cccc2c(=O)cc(-c3ccccc3Cl)[nH]c12` [Example 84], the “Lethal Ratio” value in the data set on male mice (setting [8]) is 0/4.

In the case of `O=C(O)c1cccc2c(=O)cc(-c3ccccc3Cl)[nH]c12` [Example 85], in data set [1], the inhibition at 1 µM was found to be 27.9%. In addition, in the data set with male mice (mouse, in vivo), the “Lethal Ratio” value is 0/4. Also, the inhibition in vivo at 10 mg/kg in data set [2] is 17%.

Consider `CCOC(=O)c1cccc2c(=O)cc(-c3ccc(Cl)cc3Cl)[nH]c12` [Example 89], for which the inhibition at 1 µM in data set [1] came to 55.6%. In addition, the “Lethal Ratio” value in the data set with male mice (mouse, in vivo) was 0/4. In addition, in data set [2], the inhibition in vivo at 10 mg/kg came to 26.2%.

As for `CCOC(=O)c1cccc2c(=O)cc(-c3ccc(C)cc3C)[nH]c12` [Example 94], the inhibition at 1 µM in data set [1] stood at 78.6%. In addition, in the data set on male mice (mouse, in vivo), the “Lethal Ratio” value is 1/4. In data set [2], the inhibition in vivo at 10 mg/kg amounted to 25.7%.

`CCOC(=O)c1cccc2c(O)cc(-c3ccccc3Cl)nc12` [Example 100, Ethyl 2-(2-chlorophenyl)-4-hydroxyquinoline-8-carboxylate hydrochloride]: the inhibition at 1 µM in data set [1] came to 70.5%. The “Lethal Ratio” value with male mice (setting [8]) is 0/4. Further, in data set [2], the inhibition in vivo at 10 mg/kg was 29.7%.

For `C=CCOC(=O)c1cccc2c1N=C(c1ccccc1Cl)CC2=O` [Example 110, Allyl 2-(2-chlorophenyl)-4-quinolone-8-carboxylate], in data set [1], the inhibition at 1 µM came out at 18.9%. Further, the inhibition in vivo at 200 mg/kg in the data set on carrageenin edema was determined as 19.2%. Also, the inhibition in vivo at 10 mg/kg in data set [2] came to 17.7%.

Turning to `CC(C)COC(=O)c1cccc2c(=O)cc(-c3ccccc3Cl)[nH]c12` [Example 112], the inhibition at 1 µM in data set [1] is 25%. Further, in the data set with carrageenin edema, the inhibition in vivo at 200 mg/kg was determined as 10%. In data set [2], the inhibition in vivo at 10 mg/kg turned out to be 24.3%.

For the compound `CC(=O)OCCOC(=O)c1cccc2c(=O)cc(-c3ccccc3Cl)[nH]c12` [Example 118], the inhibition at 1 µM in data set [1] came out at 64.2%. For the same compound, the inhibition in vivo at 200 mg/kg with carrageenin edema stood at 27.9%. Further, the inhibition in vivo at 10 mg/kg in data set [2] worked out at 41.5%.

`CCOCCOC(=O)c1cccc2c(=O)cc(-c3ccccc3Cl)[nH]c12` [Example 120]: the inhibition at 1 µM in data set [1] came out at 20.3%. For the same compound, in the data set with carrageenin edema, the inhibition in vivo at 200 mg/kg turned out to be 29.4%. Besides, the inhibition in vivo at 10 mg/kg in data set [2] worked out at 10.7%.

In the case of `CC(O)COC(=O)c1cccc2c(=O)cc(-c3ccccc3Cl)[nH]c12` (stereo not drawn) [Example 125], the inhibition at 1 µM in data set [1] came to 15.6%. Also, the inhibition in vivo at 200 mg/kg with carrageenin edema was 17.2%. The inhibition in vivo at 10 mg/kg in data set [2] is 10.4%.

For `CCOC(=O)CC(=O)COC(=O)c1cccc2c(=O)cc(-c3ccccc3Cl)[nH]c12` [Example 130], the inhibition at 1 µM in data set [1] came out at 12.7%. Also, in the data set on carrageenin edema, the inhibition in vivo at 200 mg/kg came to 18.3%. Also, the inhibition in vivo at 10 mg/kg in data set [2] stood at 20.3%.

In the case of `O=C(OCCO)c1cccc2c(=O)cc(-c3ccccc3F)[nH]c12` [Example 131], in data set [1], the inhibition at 1 µM stood at 14%. Besides, the inhibition in vivo at 200 mg/kg in the data set with carrageenin edema worked out at 29.9%. For the same compound, the inhibition in vivo at 10 mg/kg in data set [2] was 28.5%.

Turning to `O=C(OCCO)c1cccc2c(=O)cc(-c3ccc(Cl)cc3)[nH]c12` [Example 133], in data set [1], the inhibition at 1 µM came to 21.3%. Also, the inhibition in vivo at 200 mg/kg with carrageenin edema amounted to 10%. Further, the inhibition in vivo at 10 mg/kg in data set [2] worked out at 17%.

For the compound `Cc1ccc(-c2cc(=O)c3cccc(C(=O)OCCO)c3[nH]2)c(C)c1` [Example 136], the inhibition at 1 µM in data set [1] was found to be 15.4%. Further, the inhibition in vivo at 200 mg/kg in the data set on carrageenin edema came out at 26.9%. Moreover, the inhibition in vivo at 10 mg/kg in data set [2] is 19.4%.

Turning to `COc1ccc2c(c1)c(CC(=O)O)c(C)n2C(=O)c1ccc(Cl)cc1` [Indomethacin], in data set [3] (setting [5]), the inhibition at 100 µM was determined as 100%, the inhibition at 10 µM was 100% and the inhibition at 1 µM worked out at 1.6%. Further, the inhibition at 100 µM in data set [3] (setting [6]) was 2.6%. Moreover, in data set [3] (setting [7]), the inhibition at 100 µM is 100%, the inhibition at 10 µM came to 100% and the inhibition at 1 µM turned out to be 19.6%.

Turning to `O=C(O)c1cc(=O)c2c(OCC(O)COc3cccc4oc(C(=O)O)cc(=O)c34)cccc2o1` [Sodium chromoglicate], in data set [4], the “effect on oral administration” value is given as “does not show any effect on oral administration”.

“Ethyl 2-phenyl-4-quinolone-8-carboxylate [Example 80]”: the “1/1000 mM SRS-A Inhibition Ratio %” value in data set [1] is listed as 52.4%. For the same compound, in the data set on carrageenin edema, the “% Inhibition (carrageenin edema)” value is given as 14.7%. Further, in data set [2], the “PCA Inhibition Ratio %” value worked out at 20.9%.
